US20250154202A1, “CYCLIC EPITOPE TAGS” (BIONTECH SE, priority 2022, published 2025)
pKd: −log10 of the molar value. Several values for one entry are separate records, joined by “and”; a condition that tells them apart may be missing. Identical values can stand only once. Bridge positions count the residues as written; N and C are the ends. Square brackets hold non-standard residues; d marks the D form. Peptide text beside a SMILES is read from it.

Legend:
NbALFA = experiment: SPR measurements of NbALFA binding (Biacore T200, multi cycle kinetics, 1:1 binding model); conditions: 25° C., HBS-EP+ buffer, biotinylated NbALFA captured
Procedure: Affinity measurements were performed using a Biacore T200 (GE Healthcare, Biacore T200 control Software 3.2). […] A freshly docked Biotin CAPture chip was rehydrated overnight in the instrument (standby mode). […] The immobilization of the Nanobody was done for 180 s at 10 μL/min on FC2 followed by quenching of unbound streptavidin by 0.1 mM biocytin for 60 s and 30 μL/min on both flow cells. […] After each cycle, the surface was regenerated for 120 s with 10 μL/min using regeneration solution. All measurements were performed at 25° C. using HBS-EP+ buffer (Cytiva Europe, Cat. no BR100669). The control responses from FC1 were subtracted by the sample measurement in FC2 (FC2−FC1) followed by subtraction of the 0 nM blank injection. Resulting binding curves of this multi cycle kinetic experiment were fitted using the Biacore T200 Evaluation Software 3.2 and a 1:1 binding model.

[1] = Plasma stability, human plasma; conditions: for remaining at 1 h, 10 µM / remaining at 3 h, 10 µM / remaining at 6 h, 10 µM / half-life: human; for remaining at 1 h, 10 µM / remaining at 3 h, 10 µM / remaining at 6 h, 10 µM: human Li-heparin plasma; for half-life: plasma
[2] = Plasma stability, mouse plasma; conditions: for remaining at 1 h, 10 µM / remaining at 3 h, 10 µM / remaining at 6 h, 10 µM: Balb C, Li-heparin plasma; for remaining at 1 h, 10 µM / remaining at 3 h, 10 µM / remaining at 6 h, 10 µM / half-life: mouse; for Conc. (% of T0) / Mean (compound concentration) / Tube 2 (compound concentration) / Tube 1 (compound concentration) / half-life: mouse plasma, 37° C.; for half-life: plasma
Procedure: Plasma stability measurements were performed by spiking 5 μl of a 1 mM compound stock solution in DMSO into 495 μl of human or mouse Li-heparin plasma (Innovative Research, Cat. No, IPLALIH5OML (human) and IMS-BC-N (Balb C mouse). The spiked plasma was distributed in 50 μl aliquots into capped PCR tubes for incubation at 37° C. At each time point (0, 2, 6, 24 hours*) 3*aliquots were withdrawn from the incubator. Enzymatic reactions were quenched directly after withdrawal by adding 100 μl of acetonitrile/formic acid=99/1 (v/v). Quenched samples were stored at ambient temperature until the end of the incubation period (24 hrs*). After centrifugation, the supernatant was transferred into fresh vials and analyzed by LC-MS/MS in ESI positive mode (Waters ACQUITY UPLC I-Class System (SM-FTN) with Xevo TQD triple quadrupole mass spectrometer with control software Waters MassLynx). […] Values below the limit of quantification (0.1 μM) and outliers of triplicate results were excluded from further calculations. An exponential regression curve was fitted onto the concentration results. Half-life times were calculated from the slope of the regression curve (t1/2=ln(2)/slope).
For some samples, as indicated below, the incubation time was 6 hours. The 24 hour data was measured in triplicates whereas the 6 hour data was measured in duplicates.

[3] = human plasma, 37° C., timepoint 0 h
[4] = human plasma, 37° C., timepoint 0 h, calibration range 0.1 to 10 μM
[5] = human plasma, 37° C., timepoint 1 h
[6] = human plasma, 37° C., timepoint 3 h
[7] = human plasma, 37° C., timepoint 6 h
[8] = Flag (half-life, assay exceeded), human plasma, 37° C.
[9] = Half-life time, human plasma, 37° C., incubation 24 h (triplicates) or 6 h (duplicates)
[10] = timepoint 0 h, calibration range 0.1 to 10 μM
[11] = Flag (half-life, assay exceeded)
[12] = Half-life time, incubation 24 h (triplicates) or 6 h (duplicates)
[13] = Conc. (% of T0), human plasma, 37° C., timepoint 1 h
[14] = Conc. (% of T0), human plasma, 37° C., timepoint 3 h

Row | Conc. (% of T0) [1, 3] | Mean (compound concentration) [1, 3] | Tube 2 (compound concentration) [1, 3] | Tube 1 (compound concentration) [1, 4] | Mean (compound concentration) [1, 5] | Tube 1 (compound concentration) [1, 5] | Tube 2 (compound concentration) [1, 5] | Mean (compound concentration) [1, 6] | Tube 1 (compound concentration) [1, 6] | Tube 2 (compound concentration) [1, 6] | half-life [1, 8] | half-life [1, 9] | remaining at 1 h, 10 µM [2] | remaining at 3 h, 10 µM [2] | remaining at 6 h, 10 µM [2] | Conc. (% of T0) ([2]; timepoint 0 h) | Mean (compound concentration) ([2]; timepoint 0 h) | Tube 2 (compound concentration) ([2]; timepoint 0 h) | Tube 1 (compound concentration) [2, 10] | Mean (compound concentration) ([2]; timepoint 1 h) | SMILES | further results
1 | 100.0 % of T0 | 3.040 | 2.965 | 3.114 x | 2.859 | 2.843 x | 2.874 | 2.629 | 2.772 x | 2.486 | > 6 h | 20.8 h | 88.4% | 83.1% | 73.7% | 100.0 % of T0 | 3.073 | 3.145 | 3.000 x | 2.717 | CC(=O)N1CCC[C@H]1C(=O)N[C@@H](CO)C(=O)N[C@@H](CCCNC(=N)N)C(=O)N[C@@H](CC(C)C)C(=O)N[C@H]1CCC(=O)NCCCC[C@@H](C(=O)N[C@@H](CCCNC(=N)N)C(=O)N[C@@H](CCCNC(=N)N)C(=O)N[C@@H](CC(C)C)C(=O)N[C@H](C(=O)N[C@@H](CCC(=O)O)C(N)=O)[C@@H](C)O)NC(=O)[C@H](CC(C)C)NC(=O)[C@H](CCC(=O)O)NC(=O)[C@H](CCC(=O)O)NC1=O [SD15806, Ac-Pro-Ser-Arg-Leu-(cyclo5)Glu-Glu-Glu-Leu-(cyclo9)Lys-Arg-Arg-Leu-Thr-Glu-NH2] (Ac-PSRLEEELKRRLTE-NH2; lactam 5-9) | pKd (NbALFA): 8.84; ka (NbALFA): 3.44e+09 M⁻¹ s⁻¹; kd (NbALFA): 4.94 s⁻¹; Mean (compound concentration) [1, 7]: 2.476; Tube 1 (compound concentration) [1, 7]: 2.534 x; Tube 2 (compound concentration) [1, 7]: 2.417; remaining at 1 h, 10 µM [1, 13]: 94%; remaining at 3 h, 10 µM [1, 14]: 86.5%; remaining at 6 h, 10 µM ([1]; Conc. (% of T0), human plasma, 37° C., timepoint 6 h): 81.4%; Tube 1 (compound concentration) ([2]; timepoint 1 h): 2.773 x; Tube 2 (compound concentration) ([2]; timepoint 1 h): 2.661; Mean (compound concentration) ([2]; timepoint 3 h): 2.553; Tube 1 (compound concentration) ([2]; timepoint 3 h): 2.604 x; Tube 2 (compound concentration) ([2]; timepoint 3 h): 2.501; Mean (compound concentration) ([2]; timepoint 6 h): 2.265; Tube 1 (compound concentration) ([2]; timepoint 6 h): 2.258 x; Tube 2 (compound concentration) ([2]; timepoint 6 h): 2.272; half-life [2, 11]: > 6 h; half-life [2, 12]: 14.9 h
2 | 100.0 % of T0 | 2.217 and 2.958 | 2.230 and 3.034 | 2.203 x and 2.882 x | 2.093 and 2.872 | 2.094 x and 2.884 x | 2.092 and 2.860 | 1.662 and 2.596 | 1.583 x and 2.532 x | 1.740 and 2.660 | > 6 h | 6.07 h | 78.7% | 60.9% | 37% | 100.0 % of T0 | 2.172 | 2.194 | 2.149 x | 1.710 | CC(=O)N1CCC[C@H]1C(=O)N[C@@H](CO)C(=O)N[C@@H](CCCNC(=N)N)C(=O)N[C@@H](CC(C)C)C(=O)N[C@@H](CCC(=O)O)C(=O)N[C@H]1CSSC[C@H](C(=O)N[C@@H](CCCNC(=N)N)C(=O)N[C@@H](CCCNC(=N)N)C(=O)N[C@@H](CC(C)C)C(=O)N[C@H](C(=O)N[C@@H](CCC(=O)O)C(N)=O)[C@@H](C)O)NC(=O)[C@H](CC(C)C)NC(=O)[C@H](CCC(=O)O)NC1=O [SD15807, Ac-Pro-Ser-Arg-Leu-Glu-(cyclo6)Cys-Glu-Leu-(cyclo9)dCys-Arg-Arg-Leu-Thr-Glu-NH2] (Ac-PSRLECEL[dC]RRLTE-NH2; disulfide 6-9) | Conc. (% of T0) ([1]; human plasma, 37° C., timepoint 1 h, 60 min): 97.1 % of T0; Conc. (% of T0) ([1]; human plasma, 37° C., timepoint 3 h, 180 min): 87.8 % of T0; Conc. (% of T0) ([1]; human plasma, 37° C., timepoint 6 h, 360 min): 51.2 % of T0 and 77.7 % of T0; remaining at 1 h, 10 µM [1, 13]: 94.4%; remaining at 3 h, 10 µM [1, 14]: 75%; Tube 1 (compound concentration) ([2]; timepoint 1 h): 1.726 x; Tube 2 (compound concentration) ([2]; timepoint 1 h): 1.693; Mean (compound concentration) ([2]; timepoint 3 h): 1.322; Tube 1 (compound concentration) ([2]; timepoint 3 h): 1.321 x; Tube 2 (compound concentration) ([2]; timepoint 3 h): 1.323; Mean (compound concentration) ([2]; timepoint 6 h): 0.804; Tube 1 (compound concentration) ([2]; timepoint 6 h): 0.803 x; Tube 2 (compound concentration) ([2]; timepoint 6 h): 0.804; half-life [2, 12]: 4.32 h

Row | SMILES | Conc. (% of T0) [1, 3] | Mean (compound concentration) [1, 3] | Tube 2 (compound concentration) [1, 3] | Tube 1 (compound concentration) [1, 4] | Mean (compound concentration) [1, 5] | Tube 1 (compound concentration) [1, 5] | Tube 2 (compound concentration) [1, 5] | Mean (compound concentration) [1, 6] | Tube 1 (compound concentration) [1, 6] | Tube 2 (compound concentration) [1, 6] | half-life [1, 8] | half-life [1, 9] | remaining at 1 h, 10 µM [2] | remaining at 3 h, 10 µM [2] | remaining at 6 h, 10 µM [2] | Conc. (% of T0) ([2]; timepoint 0 h) | Mean (compound concentration) ([2]; timepoint 0 h) | Tube 2 (compound concentration) ([2]; timepoint 0 h) | Tube 1 (compound concentration) [2, 10] | Mean (compound concentration) ([2]; timepoint 1 h) | further results
3 | CC(=O)N1CCC[C@H]1C(=O)N[C@@H](CO)C(=O)N[C@@H](CCCNC(=N)N)C(=O)N[C@@H](CC(C)C)C(=O)N[C@@H](CCC(=O)O)C(=O)N[C@H]1CCCCNC(=O)CC[C@@H](C(=O)N[C@@H](CCCNC(=N)N)C(=O)N[C@@H](CC(C)C)C(=O)N[C@H](C(=O)N[C@@H](CCC(=O)O)C(N)=O)[C@@H](C)O)NC(=O)[C@H](CCCNC(=N)N)NC(=O)[C@H](CC(C)C)NC(=O)[C@H](CCC(=O)O)NC1=O [SD15805, Ac-Pro-Ser-Arg-Leu-Glu-(cyclo6)Lys-Glu-Leu-Arg-(cyclo10)Glu-Arg-Leu-Thr-Glu-NH2] (Ac-PSRLEKELRERLTE-NH2; lactam 6-10) | 100.0 % of T0 | 2.836 | 2.777 | 2.894 x | 2.507 | 2.529 x | 2.485 | 2.356 | 2.408 x | 2.304 | > 6 h | 13.8 h | 82.1% | 78.3% | 53.8% | 100.0 % of T0 | 2.697 | 2.811 | 2.583 x | 2.213 | pKd (NbALFA): 9.99; ka (NbALFA): 9.33e+06 M⁻¹ s⁻¹; kd (NbALFA): 0.000964 s⁻¹; Mean (compound concentration) [1, 7]: 2.046; Tube 1 (compound concentration) [1, 7]: 2.046 x; Tube 2 (compound concentration) [1, 7]: 2.045; remaining at 1 h, 10 µM [1]: 88.4%; remaining at 3 h, 10 µM [1]: 83.1%; remaining at 6 h, 10 µM [1]: 72.1%; Tube 1 (compound concentration) ([2]; timepoint 1 h): 2.223 x; Tube 2 (compound concentration) ([2]; timepoint 1 h): 2.203; Mean (compound concentration) ([2]; timepoint 3 h): 2.112; Tube 1 (compound concentration) ([2]; timepoint 3 h): 2.125 x; Tube 2 (compound concentration) ([2]; timepoint 3 h): 2.099; Mean (compound concentration) ([2]; timepoint 6 h): 1.450; Tube 1 (compound concentration) ([2]; timepoint 6 h): 1.429 x; Tube 2 (compound concentration) ([2]; timepoint 6 h): 1.471; half-life [2, 11]: > 6 h; half-life [2, 12]: 7.29 h
